The values below come from patent publication US11618747B2, “LXR modulators with bicyclic core moiety” (OrsoBio, Inc., priority 2018, dated 2023).

The target of data set [1] is T1, ligand-binding domain (LBD) of LXRβ (Homo sapiens, UniProt P55055, DUP175-175).
T1 construct: LXRβ (amino acids 156-461); expressed in transfected cells; host or cells: HEK293
T1 sequence (P55055 with tags, fused parts or gaps DUP175-175 limits assumed): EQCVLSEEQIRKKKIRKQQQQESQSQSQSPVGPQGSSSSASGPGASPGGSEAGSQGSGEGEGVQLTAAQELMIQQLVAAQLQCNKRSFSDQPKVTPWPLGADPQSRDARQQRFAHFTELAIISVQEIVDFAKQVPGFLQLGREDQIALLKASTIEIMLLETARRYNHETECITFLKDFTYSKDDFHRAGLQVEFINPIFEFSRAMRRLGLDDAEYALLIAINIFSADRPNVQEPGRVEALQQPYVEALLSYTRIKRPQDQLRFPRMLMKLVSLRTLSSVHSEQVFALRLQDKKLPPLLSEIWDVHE
Description: LXR Gal4 reporter transient transfection assay (LBD-M2H Gal4β). Conditions: HEK293 cells, LXRβ LBD; read-out: LBD-M2H Gal4β (EC50 range). It counts as cell-based. In a few lines: (§1)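 Mammalian two-hybrid in HEK293 cells transiently transfected with NFkB-AD-fused FL or LBD LXR plus GAL4-BD-fused SRC1 or NCoR cofactor domains and GAL4-responsive firefly luciferase reporter, Renilla-normalized. Compound added 4 h post-transfection (≤0.2% DMSO), 16 h incubation, luminescence read.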

In data set [2] the target is T2, LXRβ ligand-binding domain (Homo sapiens, UniProt P55055, DUP175-175).
T2 construct: amino acids 156-461; NP009052; made in house; host or cells: E. coli
T2 sequence (P55055 with tags, fused parts or gaps DUP175-175 limits assumed): T1 sequence (P55055 with tags, fused parts or gaps DUP175-175 limits assumed)
The experiment in a line: TR-FRETβ activity assay (NCoA3 coactivator peptide recruitment). The data set is classed as biochemical. The following applies: TR-FRET, 1 μM 24(S)-25-epoxycholesterol prestimulation; read-out: FRETβ (EC50 range). In a few lines:
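GST-tagged human LXRβ LBD (aa 156-461, E. coli) at 76 nM with 400 nM biotinylated NCoA3 peptide in Tris/HCl pH 6.8, 240 mM KCl, BSA, 0.002% Triton-X-100, plus 1 μM 24(S)-25-epoxycholesterol as prestimulating agonist. Compounds at 50 μM down to 0.002 μM, 1 h at 4 °C. Coactivator recruitment by TR-FRET (Tb cryptate/XL665, 615/665 nm), triplicates.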
On the technique in general: In TR-FRET formats the signal depends on donor and acceptor labels being close together.

Data set [3] in a line: Pharmacokinetics in mice after single oral dosing (blood/plasma and liver exposure). The data set is classed as in vivo, mice (C57/bl6/J). On the procedure:
The pharmacokinetics of the compounds was assessed in mice after single dosing and oral administrations. Blood/plasma and liver exposure was measured via LC-MS.
The study design was as follows:
Animals: C57/bl6/J (Janvier) males
Diet: standard rodent chow
Animal handling: animals were withdrawn from food at least 12 h before administration
Design: single dose oral administration, n=3 animals per group
Sacrifice: at stated time point (4, 12 or 24 h) after administration
Bioanalytics: LC-MS of liver and blood/plasma samples

Data set [4] addresses T3, ligand-binding domain (LBD) of LXRα (Homo sapiens, UniProt Q13133).
T3 construct: expressed in transfected cells; host or cells: HEK293
T3 sequence (Q13133 155-447): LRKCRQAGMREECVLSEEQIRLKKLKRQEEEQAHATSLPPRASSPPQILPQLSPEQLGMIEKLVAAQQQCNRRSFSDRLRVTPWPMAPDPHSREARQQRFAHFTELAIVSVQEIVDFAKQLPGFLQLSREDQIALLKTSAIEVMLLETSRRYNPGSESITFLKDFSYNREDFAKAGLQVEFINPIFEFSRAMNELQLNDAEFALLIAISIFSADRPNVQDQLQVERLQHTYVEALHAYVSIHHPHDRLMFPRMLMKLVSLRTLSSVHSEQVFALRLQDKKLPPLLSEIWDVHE
Description: LXR Gal4 reporter transient transfection assay (LBD-M2H Gal4α). The data set is classed as cell-based. The following applies: HEK293 cells, LXRα LBD; read-out: LBD-M2H Gal4α (EC50 range). The gist of the method:
as §1

For data set [5] the following is noted: rat liver microsomal assay; cited from earlier work. A general note: Liver microsomes are a subcellular fraction often used to study metabolism.
For data set [6] the following is noted: human liver microsomal assay; cited from earlier work.
Data set [7] concerns the target T4, full length (FL) LXRα (Homo sapiens, UniProt Q13133).
T4 construct: the full length (FL) proteins of LXRα (amino acids 1-447); NP005684; expressed in transfected cells; host or cells: HEK293
T4 sequence (Q13133 1-447): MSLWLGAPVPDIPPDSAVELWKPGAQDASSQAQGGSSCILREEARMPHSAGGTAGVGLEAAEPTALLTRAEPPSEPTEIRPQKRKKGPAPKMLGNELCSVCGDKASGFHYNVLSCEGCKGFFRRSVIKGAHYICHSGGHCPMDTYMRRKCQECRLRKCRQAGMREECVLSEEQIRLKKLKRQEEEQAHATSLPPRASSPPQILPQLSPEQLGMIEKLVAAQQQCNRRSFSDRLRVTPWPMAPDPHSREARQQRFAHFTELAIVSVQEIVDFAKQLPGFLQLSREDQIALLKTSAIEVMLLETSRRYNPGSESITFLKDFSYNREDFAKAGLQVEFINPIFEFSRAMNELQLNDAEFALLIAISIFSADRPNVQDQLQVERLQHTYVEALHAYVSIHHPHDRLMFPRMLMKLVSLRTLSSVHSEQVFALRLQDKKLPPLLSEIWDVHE
Description: LXR Gal4 reporter transient transfection assay (FL-M2H Gal4α). It counts as cell-based. Conditions: HEK293 cells, full length LXRα; read-out: FL-M2H Gal4α (EC50 range). The gist of the method:
as §1

For data set [8], the target named is T5, full length (FL) LXRβ (Homo sapiens, UniProt P55055, DUP175-175).
T5 construct: the full length (FL) proteins of LXRα (amino acids 1-447); NP005684; NP009052; expressed in transfected cells; host or cells: HEK293
T5 sequence (P55055 with tags, fused parts or gaps DUP175-175): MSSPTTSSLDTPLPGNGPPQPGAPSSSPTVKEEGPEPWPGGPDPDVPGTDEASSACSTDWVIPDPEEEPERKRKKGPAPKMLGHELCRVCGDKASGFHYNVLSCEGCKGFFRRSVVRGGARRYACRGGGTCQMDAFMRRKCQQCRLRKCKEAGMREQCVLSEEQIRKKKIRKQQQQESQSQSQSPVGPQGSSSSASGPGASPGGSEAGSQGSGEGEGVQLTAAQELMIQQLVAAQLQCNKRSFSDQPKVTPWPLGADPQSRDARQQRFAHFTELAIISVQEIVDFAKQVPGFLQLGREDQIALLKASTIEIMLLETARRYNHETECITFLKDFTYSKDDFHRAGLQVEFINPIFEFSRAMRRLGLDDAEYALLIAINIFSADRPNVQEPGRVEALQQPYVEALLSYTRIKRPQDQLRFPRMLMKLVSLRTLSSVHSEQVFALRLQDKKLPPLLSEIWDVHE
The experiment in a line: LXR Gal4 reporter transient transfection assay (FL-M2H Gal4β). The data set is classed as cell-based. The following applies: HEK293 cells, full length LXRβ; read-out: FL-M2H Gal4β (EC50 range). In a few lines:
as §1

Setting [9] is: 20 mg/kg single oral dose, time point 4 h.

Read-outs that look alike come from different tables or passages of the source.

Consider `N#Cc1sccc1-c1c(-c2cccc(C3CC3C(=O)O)c2)n(S(=O)(=O)c2ccc(Cl)cc2)c2ccccc12` (centres unmarked) [30/4], for which the results for the EC50 in data set [1], in data set [2] and in data set [4] were less than 0.1 µM, 1 to 10 µM and 0.1 to 1 µM, respectively. In addition, in data set [3] (setting [9]), the blood/plasma exposure entry was “C (C: 100 nM to <300 nM)”. Besides, in data set [3] (setting [9]), the liver exposure entry is “C (C: 1 μM to ≤3 μM)”. Also, the liver/blood ratio result in data set [3] (setting [9]) is recorded as “C (C: 10 to ≤30)”.

With `Cc1cc(C)c(S(=O)(=O)N(Cc2ccc(-c3cccc(S(C)(=O)=O)c3)cc2)Cc2ccc(C(F)(F)F)o2)c(C)c1` [GSK2033, reference compound], in data set [3] (setting [9]), the “blood/plasma exposure (below LLOQ, LLOQ given)” value is “(14.4 ng/mL)” and the “liver exposure (below LLOQ, LLOQ given)” value is on record as “(9.6 ng/mL)”. The “oral bioavailability (in words)” value in data set [3] (oral administration) is on record as “not orally bioavailable”. Besides, the “clearance (Clint)” value in data set [5] is greater than 1.0 mL/min/mg protein. Further, the “clearance (Clint)” value in data set [6] is greater than 1.0 mL/min/mg protein.

As to `N#Cc1sccc1-c1c(-c2cccc(N3CC(C(=O)O)C3)c2)n(S(=O)(=O)c2ccc(Cl)cc2)c2ccccc12` [30/7], the EC50 in data set [1] is less than 0.1 µM; in data set [2] it was 0.1 to 1 µM; in data set [4], less than 0.1 µM. In data set [3] (setting [9]), the blood/plasma exposure result is reported as “D (D: <100 nM)”. Moreover, the liver exposure entry in data set [3] (setting [9]) is “B (B: 300 nM to ≤1 μM)”. Further, in data set [3] (setting [9]), the liver/blood ratio entry is “D (D: >30)”.

With `N#Cc1sccc1-c1c(-c2cccc(C3CC3C(=O)O)c2)n(S(=O)(=O)c2ccc(Cl)cc2)c2ccc(F)cc12` (centres unmarked) [3/24], the EC50 in data set [1], in data set [7], in data set [8] and in data set [4] was less than 0.1 µM each time. In addition, the blood/plasma exposure entry in data set [3] (setting [9]) is on record as “D (D: <100 nM)”. Further, the liver exposure entry in data set [3] (setting [9]) is recorded as “C (C: 1 μM to ≤3 μM)”. Further, the liver/blood ratio entry in data set [3] (setting [9]) is “D (D: >30)”.

On to `Cc1ccc(S(=O)(=O)n2c(-c3cccc(-c4ccc(CN5CCN(C)CC5)cc4)c3)c(-c3ccsc3C#N)c3cc(F)ccc32)cc1` [Example 8, 3-(5-Fluoro-2-(4′-((4-methylpiperazin-1-yl)methyl)-[1,1′-biphenyl]-3-yl)-1-tosyl-1H-indol-3-yl)thiophene-2-carbonitrile], for which, in data set [2], the EC50 was in the range of 0.1 to 1 µM. Also, in data set [3] (setting [9]), the blood/plasma exposure result is on record as “B (B: 300 nM to ≤1 μM)”, the liver exposure result was “D (D: >3 μM)” and the liver/blood ratio result is “B (B: 3 to ≤10)”. Further, the EC50 in data set [8] is less than 0.1 µM.

Usually EC50 stands for the concentration needed to bring the measured effect to its halfway point.
